#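 Method: 48-hour compound exposure of cells in 96-well plates, five concentrations, linear interpolation of endpoints. Abbreviation: GI50, concentration required for 50% inhibition of growth.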 Active and inactive are the calls of the source. No stated cut-off is given here; in the data, active = GI50 up to about 1.1 µM and inactive = higher. Where a SMILES comes first, the peptide text is derived from it. The star is where a group is joined. Cbz = O=C(OCc1ccccc1)*; Boc = CC(C)(C)OC(=O)*; tBu = CC(C)(C)*
# Tests used:
# Experiment in all cases: inhibition of tumour cell growth, NCI panel, 48 h
# [1] = tested on: A549
# [2] = tested on: MOLT-4
# [3] = tested on: PC-3
# [4] = tested on: SNB-75
# [5] = tested on: SF-539
# [6] = tested on: KM12
# [7] = tested on: M14
# [8] = tested on: RPMI-8226
# [9] = tested on: DU-145
# [10] = tested on: TK-10
# [11] = tested on: SN12C
# [12] = tested on: UO-31
# [13] = tested on: MCF7
# [14] = tested on: HOP-62
# [15] = tested on: MDA-MB-231
# [16] = tested on: K562
# [17] = tested on: OVCAR-5
# [18] = tested on: MDA-N
SMILES,GI50 [1],GI50 [2],GI50 [3],GI50 [4],GI50 [5],GI50 [6],GI50 [7],GI50 [8],GI50 [9],GI50 [10],GI50 [11],GI50 [12],GI50 [13],GI50 [14],GI50 [15],GI50 [16],GI50 [17],GI50 [18]
O=C1Nc2ccc(Br)cc2/C1=N/c1ccc2c(c1)OCO2,46.8 µM (inactive),16.6 µM (inactive),16.3 µM (inactive),31.6 µM (inactive),18.5 µM (inactive),17.6 µM (inactive),20.5 µM (inactive),18.5 µM (inactive),34 µM (inactive),27.3 µM (inactive),19 µM (inactive),19.1 µM (inactive),16.7 µM (inactive),20.2 µM (inactive),19 µM (inactive),24.4 µM (inactive),22.8 µM (inactive),15.7 µM (inactive)
CCOC(=O)/C=C(/C(=O)OCC)n1ccc(N)nc1=O,> 100 µM (inactive),92 µM (inactive),> 100 µM (inactive),95.1 µM (inactive),> 100 µM (inactive),> 100 µM (inactive),> 100 µM (inactive),> 100 µM (inactive),> 100 µM (inactive),> 100 µM (inactive),> 100 µM (inactive),> 100 µM (inactive),> 100 µM (inactive),> 100 µM (inactive),> 100 µM (inactive),> 100 µM (inactive),47.9 µM (inactive),> 100 µM (inactive)
CCN(CC)c1ccc2cc(-c3nc(O)c4ccccc4n3)c(=N)oc2c1,> 100 µM (inactive),> 100 µM (inactive),> 100 µM (inactive),> 100 µM (inactive),> 100 µM (inactive),> 100 µM (inactive),> 100 µM (inactive),> 100 µM (inactive),> 100 µM (inactive),> 100 µM (inactive),> 100 µM (inactive),> 100 µM (inactive),> 100 µM (inactive),> 100 µM (inactive),> 100 µM (inactive),> 100 µM (inactive),> 100 µM (inactive),> 100 µM (inactive)
COc1oc(C(=O)NC2CCCCC2)c(-c2ccc(Cl)cc2)c1S(=O)(=O)c1ccccc1,23.7 µM (inactive),6.79 µM (inactive),10.7 µM (inactive),20.8 µM (inactive),6.58 µM (inactive),5.55 µM (inactive),26.9 µM (inactive),2.15 µM (inactive),18.3 µM (inactive),> 53.1 µM (inactive),20.1 µM (inactive),1.82 µM (inactive),36.1 µM (inactive),6.27 µM (inactive),9.51 µM (inactive),12.3 µM (inactive),23.4 µM (inactive),64 µM (inactive)
C[C@]12CC[C@H]3[C@@H](CC=C4C[C@@H](N5CCCC5)CC[C@@]43C)[C@@H]1C[C@H](N1CCOCC1)[C@@H]2O,> 100 µM (inactive),> 100 µM (inactive),> 100 µM (inactive),> 100 µM (inactive),> 100 µM (inactive),> 100 µM (inactive),> 10 µM (inactive),> 100 µM (inactive),> 100 µM (inactive),> 100 µM (inactive),> 100 µM (inactive),> 100 µM (inactive),> 10 µM (inactive),> 100 µM (inactive),> 100 µM (inactive),22.5 µM (inactive),> 100 µM (inactive),> 100 µM (inactive)
CC(C)Cn1cnc2c(Cl)nc3ccccc3c21,59.4 µM (inactive),34.3 µM (inactive),34.4 µM (inactive),18.7 µM (inactive),46.3 µM (inactive),37.8 µM (inactive),> 100 µM (inactive),42.9 µM (inactive),73.8 µM (inactive),53.6 µM (inactive),70.6 µM (inactive),18.5 µM (inactive),47.9 µM (inactive),> 100 µM (inactive),41.5 µM (inactive),38.4 µM (inactive),54.7 µM (inactive),68.2 µM (inactive)
C=C1CC(O)C2C(=C)C(=O)OC2C2C(C)C(=O)CC12 (stereo not given),20.3 µM (inactive),7.03 µM (inactive),36.6 µM (inactive),15.1 µM (inactive),19.7 µM (inactive),24.7 µM (inactive),11.8 µM (inactive),14 µM (inactive),15.3 µM (inactive),4.82 µM (inactive),15.5 µM (inactive),14.7 µM (inactive),9.4 µM (inactive),19.8 µM (inactive),20.4 µM (inactive),5.98 µM (inactive),16.1 µM (inactive),6.87 µM (inactive)
CC(OC(C)(C)C)C(NC(=O)C(CCCCNC(=O)OC(C)(C)C)NC(=O)C(Cc1c[nH]c2ccccc12)NC(=O)C(Cc1ccccc1)NC(=O)OCc1ccccc1)C(=O)NC(Cc1ccccc1)C(=O)O (stereo not given) (Cbz-FWK(Boc)T(tBu)F-OH; configuration not given here),> 100 µM (inactive),28.1 µM (inactive),34.8 µM (inactive),15.7 µM (inactive),31.8 µM (inactive),43.3 µM (inactive),> 100 µM (inactive),43.5 µM (inactive),61.1 µM (inactive),> 100 µM (inactive),25.8 µM (inactive),> 100 µM (inactive),31.1 µM (inactive),> 100 µM (inactive),40.2 µM (inactive),28.8 µM (inactive),33.1 µM (inactive),38.5 µM (inactive)
N#CSc1ccc(S(N)(=O)=O)cc1,> 100 µM (inactive),1 µM (active),48 µM (inactive),> 100 µM (inactive),25.1 µM (inactive),> 100 µM (inactive),21.6 µM (inactive),26.5 µM (inactive),> 100 µM (inactive),75.5 µM (inactive),> 100 µM (inactive),19.4 µM (inactive),35.6 µM (inactive),> 100 µM (inactive),44.6 µM (inactive),35.2 µM (inactive),59.8 µM (inactive),33.2 µM (inactive)
CCOC1NC(=O)c2ccccc21 (stereo not given),> 100 µM (inactive),> 100 µM (inactive),> 100 µM (inactive),> 100 µM (inactive),> 100 µM (inactive),> 100 µM (inactive),> 100 µM (inactive),> 100 µM (inactive),> 100 µM (inactive),> 100 µM (inactive),> 100 µM (inactive),> 100 µM (inactive),> 100 µM (inactive),> 100 µM (inactive),> 100 µM (inactive),> 100 µM (inactive),> 100 µM (inactive),> 100 µM (inactive)
CC(=O)OC1COC(n2c(-c3ccc(Cl)cc3)cc(-c3ccccc3)c(C#N)c2=S)C(OC(C)=O)C1OC(C)=O (stereo not given),13.4 µM (inactive),50.1 µM (inactive),14.5 µM (inactive),15.7 µM (inactive),4.42 µM (inactive),14.7 µM (inactive),17.2 µM (inactive),29.9 µM (inactive),13.9 µM (inactive),31.6 µM (inactive),9.25 µM (inactive),17.6 µM (inactive),8.43 µM (inactive),9.23 µM (inactive),2.88 µM (inactive),12.2 µM (inactive),32.7 µM (inactive),22.1 µM (inactive)
CC1=NN(c2ccccc2)C(=O)/C1=C1\SC(c2ccccc2)(c2ccccc2)c2ccccc21,> 100 µM (inactive),> 100 µM (inactive),> 100 µM (inactive),> 100 µM (inactive),> 100 µM (inactive),> 100 µM (inactive),> 100 µM (inactive),> 100 µM (inactive),> 100 µM (inactive),> 100 µM (inactive),> 100 µM (inactive),> 100 µM (inactive),> 100 µM (inactive),> 100 µM (inactive),> 100 µM (inactive),> 100 µM (inactive),> 100 µM (inactive),> 100 µM (inactive)
O=[N+]([O-])/C(Cl)=C(\Nc1ccccc1)C(Cl)=C(Cl)Cl,32.7 µM (inactive),33.3 µM (inactive),38.3 µM (inactive),2.19 µM (inactive),27.9 µM (inactive),12.9 µM (inactive),23.7 µM (inactive),25.6 µM (inactive),36.8 µM (inactive),56.6 µM (inactive),33.9 µM (inactive),40.7 µM (inactive),14.3 µM (inactive),29 µM (inactive),34.4 µM (inactive),25 µM (inactive),40.8 µM (inactive),36 µM (inactive)
O=C1/C(=C/c2ccc(Cl)cc2)N=C(c2ccccc2)N1c1nc2c(Cl)cc(Cl)cc2s1,24.5 µM (inactive),2.28 µM (inactive),18.5 µM (inactive),35.7 µM (inactive),22.3 µM (inactive),24.3 µM (inactive),34.9 µM (inactive),12.5 µM (inactive),33.7 µM (inactive),42.1 µM (inactive),23.1 µM (inactive),25.8 µM (inactive),23.9 µM (inactive),22 µM (inactive),30.5 µM (inactive),25.1 µM (inactive),35.2 µM (inactive),17.5 µM (inactive)
COC(=O)[C@H](Cc1ccccc1)NC(=O)c1ccc(CNC(=O)/C=C/c2csc(-c3ccccc3)n2)cc1,16.1 µM (inactive),1.75 µM (inactive),6.87 µM (inactive),11 µM (inactive),2.04 µM (inactive),7.87 µM (inactive),1.84 µM (inactive),7.74 µM (inactive),7.03 µM (inactive),19.3 µM (inactive),8.91 µM (inactive),8.2 µM (inactive),4.5 µM (inactive),15.3 µM (inactive),10.9 µM (inactive),1.93 µM (inactive),38.5 µM (inactive),4.45 µM (inactive)

# From ChEMBL document CHEMBL1201862, “PubChem BioAssay data set” (2004)
